The molecules below were run against T1, human V3 receptor (Homo sapiens, UniProt P47901) (assay: [3H]AVP binding to CHO cells stably expressing the human V3 receptor). Conditions: [3H]AVP 2.5x10^-9 mol/L.
T1 construct: expressed in transfected cells
T1 sequence (P47901 1-424): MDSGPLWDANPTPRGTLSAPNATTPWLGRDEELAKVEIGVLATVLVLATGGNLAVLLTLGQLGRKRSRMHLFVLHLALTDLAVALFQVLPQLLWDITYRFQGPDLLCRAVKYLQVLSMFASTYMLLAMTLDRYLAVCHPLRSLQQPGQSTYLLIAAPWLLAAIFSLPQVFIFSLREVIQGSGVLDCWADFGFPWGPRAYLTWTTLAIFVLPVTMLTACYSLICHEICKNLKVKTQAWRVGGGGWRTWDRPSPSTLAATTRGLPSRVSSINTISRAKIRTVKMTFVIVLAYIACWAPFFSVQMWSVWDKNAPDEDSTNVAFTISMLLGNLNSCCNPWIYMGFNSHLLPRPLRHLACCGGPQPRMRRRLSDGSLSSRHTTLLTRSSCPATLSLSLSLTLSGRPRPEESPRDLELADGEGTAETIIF
Method: Chinese Hamster Ovary (CHO) cells stably expressing the human V3 receptor were incubated to equilibrium with the test compound (at a final assay concentration of 10^−10 mol.L^−1 to 10^−5 mol.L^−1) and [^3H]AVP (at a final assay concentration of 2.5×10^−9 mol.L^−1). […] After washing with ice-cold phosphate buffered saline (PBS), scintillation fluid was added and the plates counted on a Topcount NXT apparatus.
A sigmoidal dose response curve (non-linear regression, variable slope) was plotted as concentration of test compound (mol.L^−1) against percentage specific binding of [^3H]AVP and a Ki value was calculated. Each determination was carried out in triplicate and repeated on at least 3 separate occasions
For `CC(C)NC(=O)Cn1c(-c2cccc(Cl)c2)nc2ccc(N3CCCNCC3)cc2c1=O` [Example 1b, 2-[2-(3-Chlorophenyl)-4-oxo-6-perhydro-1,4-diazepin-1-yl-4H-quinazolin-3-yl]-N-isopropylacetamide], the Ki was < 10 nM.
A Ki of 10 to 100 nM was found for `COc1cccc(-c2nc3ccc(N4CCNCC4)cc3c(=O)n2CC(=O)NC(C)C)c1` [Example 2b, N-Isopropyl-2-[2-(3-methoxyphenyl)-4-oxo-6-piperazin-1-yl-4H-quinazolin-3-yl]acetamide] in this work.
A Ki of 10 to 100 nM was found for `COc1cccc(-c2nc3ccc(N4CCCC(CN(C)C)C4)cc3c(=O)n2CC(=O)NC(C)C)c1` (centres unmarked) [Example 3c, 2-[6-(3-Dimethylaminomethyl-piperidin-1-yl)-2-(3-methoxyphenyl)-4-oxo-4H-quinazolin-3-yl]-N-isopropylacetamide] in this work.
With `COc1cccc(-c2nc3ccc(N4CCC[C@H](CN5CCCCC5)C4)cc3c(=O)n2CC(=O)NC(C)C)c1` [Example 3f, N-Isopropyl-2-[2-(3-methoxyphenyl)-4-oxo-6-((R)-3-piperidin-1-ylmethylpiperidin-1-yl)-4H-quinazolin-3-yl]acetamide] the Ki was < 10 nM.
A Ki of 100 to 1000 nM was found for `COc1cccc(-c2nc3ccc(N4CCCN(CC(F)(F)F)CC4)cc3c(=O)n2CC(=O)NC(C)C)c1` [Example 4c, N-Isopropyl-2-{2-(3-methoxyphenyl)-4-oxo-6-[4-(2,2,2-trifluoroethyl)Perhydro-1,4-diazepin-1-yl]-4H-quinazolin-3-yl}acetamide] in this work.
With `COCCN1CCCN(c2ccc3nc(-c4cccc(OC)c4)n(CC(=O)NC(C)C)c(=O)c3c2)CC1` [Example 4d, N-Isopropyl-2-[6-[4-(2-methoxyethyl)perhydro-1,4-diazepin-1-yl]-2-(3-methoxyphenyl)-4-oxo-4H-quinazolin-3-yl]acetamide] the Ki was < 10 nM.
`CC(C)NC(=O)Cn1c(-c2ccc(F)c(Cl)c2)nc2ccc(N3CCCN(CC(C)(C)C)CC3)cc2c1=O` [Example 5Ac, 2-{2-(3-Chloro-4-fluorophenyl)-6-[4-(2,2-dimethylpropyl)perhydro-1,4-diazepin-1-yl]-4-oxo-4H-quinazolin-3-yl}-N-isopropylacetamide] was tested, and the Ki was < 10 nM.
With `CC(C)NC(=O)Cn1c(-c2ccc(F)c(Cl)c2)nc2ccc(N3CCN(C)CC(C)(C)C3)cc2c1=O` [Example 5s, 2-[2-(3-Chloro-4-fluorophenyl)-4-oxo-6-(4,6,6-trimethylperhydro-1,4-diazepin-1-yl)-4H-quinazolin-3-yl]-N-isopropylacetamide] the Ki was < 10 nM.
`CC(C)NC(=O)Cn1c(-c2cc(Cl)cc(OC(F)(F)F)c2)nc2ccc(N3CCCN(C(C)C)CC3)cc2c1=O` [Example 6w, 2-[2-(3-Chloro-5-trifluoromethoxyphenyl)-6-(4-isopropylperhydro-1,4-diazepin-1-yl)-4-oxo-4H-quinazolin-3-yl]-N-isopropylacetamide] was tested, and the Ki was < 10 nM.
A Ki of 10 to 100 nM was found for `CC(C)(C)NC(=O)Cn1c(C2CCCC2)nc2ccc(N3CCCNCC3)cc2c1=O` [Example 7a] in this work.
A Ki of 10 to 100 nM was found for `COCC(C)NC(=O)Cn1c(-c2ccc(F)c(OC)c2)nc2ccc(N3CCN4CCC3CC4)cc2c1=O` (centres unmarked) [Example 9Ah, 2-[6-(1,4-Diazabicyclo[3.2.2]non-4-yl)-2-(4-fluoro-3-methoxyphenyl)-4-oxo-4H-quinazolin-3-yl]-N-(2-methoxy-1-methylethyl)acetamide] in this work.
For `CCN1CCCN(c2ccc3nc(-c4ccc(F)c(OC)c4)n(CC(=O)NC(C)(C)C(F)(F)F)c(=O)c3c2)CC1` [Example 9h, 2-[6-(4-Ethylperhydro-1,4-diazepin-1-yl)-2-(4-fluoro-3-methoxyphenyl)-4-oxo-4H-quinazolin-3-yl]-N-(2,212-trifluoro-1,1-dimethylethyl)acetamide], the Ki was < 10 nM.
A Ki of 10 to 100 nM was found for `CC(C)N1CCCN(c2ccc3nc(-c4cccc(Cl)c4)n(CC(=O)N(C)C(C)C)c(=O)c3c2)CC1` [Example 9u, 2-[2-(3-Chlorophenyl)-6-(4-isopropylperhydro-1,4-diazepin-1-yl)-4-oxo-4H-quinazolin-3-yl]-N-isopropyl-N-methylacetamide] in this work.

The molecules below were run against T2, V3 receptor (Rattus norvegicus, UniProt P48974) (assay: Block of AVP-induced ACTH release from isolated rat anterior pituitary corticotrophs). Conditions: ACTH release after 3x10^-9 mol/L AVP for 120 minutes, ELISA; read-out: V3 receptor antagonism in isolated rat anterior pituitary cells.
T2 construct: Anterior pituitary corticotrophs were prepared from adult female Sprague-Dawley rats; endogenous in cells; host or cells: primary anterior pituitary corticotrophs from adult female Sprague-Dawley rats
T2 sequence (P48974 1-425): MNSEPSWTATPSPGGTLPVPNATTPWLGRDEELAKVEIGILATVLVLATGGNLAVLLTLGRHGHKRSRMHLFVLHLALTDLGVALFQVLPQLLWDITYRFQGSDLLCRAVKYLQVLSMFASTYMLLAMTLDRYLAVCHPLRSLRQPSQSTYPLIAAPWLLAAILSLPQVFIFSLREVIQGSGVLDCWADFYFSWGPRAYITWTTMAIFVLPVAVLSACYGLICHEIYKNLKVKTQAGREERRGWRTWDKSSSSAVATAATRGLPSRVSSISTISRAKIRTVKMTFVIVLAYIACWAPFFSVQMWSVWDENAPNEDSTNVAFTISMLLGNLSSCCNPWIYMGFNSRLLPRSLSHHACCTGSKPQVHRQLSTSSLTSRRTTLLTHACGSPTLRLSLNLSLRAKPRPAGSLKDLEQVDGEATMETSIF
Format: cell-based
Method: The ability of compounds of the invention to act as V3 antagonists in a physiologically relevant system was determined by measuring their ability to block the release of adrenocorticotropic hormone (ACTH) from anterior pituitary corticotrophs in response to treatment with arginine vasopressin (AVP).
Anterior pituitary corticotrophs were prepared from adult female Sprague-Dawley rats and seeded into 48 well plates. The cells were cultured for 4 days prior to exposure to compound. Test compounds were prepared at […] in 100% DMSO. Cells were exposed to a dose response of test compounds for 20 minutes (10^−8 mol.L^−1-10^−5 mol.L^−1). The final concentration of DMSO in the assay was kept constant at 0.3%. The cells were then exposed to 3×10^−9 mol.L^−1 AVP for 120 minutes. Supernatants were harvested and stored at −20° C. ACTH levels were subsequently measured by ELISA following the manufacturer's instructions (Immunodiagnostic systems, UK (Cat No. DX-SDX018)). Each treatment was carried out in quadruplicate and a mean value obtained for the amount of ACTH released. The degree of antagonism was then calculated as a percentage of the amount of ACTH released by agonist alone after adjustment for basal levels of ACTH. A pIC50 was calculated by fitting a Sigmoidal dose response (variable slope) curve with a non-linear (fit) to the data using the software package GraphPad prism. […]
An IC50 of 10 to 100 nM was found for `COc1cccc(-c2nc3ccc(N4CCCN(C(C)C)CC4)cc3c(=O)n2CC(=O)NC(C)C)c1` [Example 4b, N-Isopropyl-2-[6-(4-isopropylperhydro-1,4-diazepin-1-yl)-2-(3-methoxyphenyl)-4-oxo-4H-quinazolin-3-yl]acetamide] in this work.

— US7820649B2, “Quinazolinone and isoquinolinone acetamide derivatives” (N.V. Organon, priority 2006, dated 2010)
